# Test system: canine myoglobin
# Test: Serum canine myoglobin ELISA (muscle damage biomarker), Example 1
# Assay type: in vivo, dog
# Conditions: for Change in Myoglobin, post-run minus pre-run: following 15 mile long run at 13 wk, mean ± SEM
# Description: Blood Analysis: Serum samples were taken at three different times from each dog during the 90 day period. The blood samples were collected as follows: 1.) just prior to scanning each dog for body composition at the beginning of the study, 2.) prior to the long run on the 13th week, and 3.) following the long run on the 13th week. The serum samples were analyzed for Phosphocreatine Kinase and Canine Myoglobin to determine the amount of muscle protein leakage that occurred following the long run and TBARS and Total Antioxidant Capacity (TAC) were determined to evaluate the antioxidant status of each of the test dogs during the exercise program. The final blood sample was taken 24 hr after the long run to obtain maximum protein leakage based on previous similar types of exercise research with human athletes. Biomarkers and Assay Methods: Blood was drawn from each dog using a serum separator tube at three different times during the 90 day period: 1.) just prior to scanning each dog for body composition at the beginning of the study, 2.) prior to the long run on the 13th week, and 3.) following the long run on the 13th week. The final blood sample was taken 24 hr after the long run to obtain maximum protein leakage based on previous similar types of exercise research with human athletes. Each time after the blood was drawn it was allowed to clot before being centrifuged for 15 min at 2000 g at 4° C. Serum was aliquoted into 1.5 mL microcentrifuge tubes and stored at −80° C. until assays were ran following the end of the study. Creatine kinase (CK) and canine myoglobin were measured to determine the amount of muscle protein leakage that occurred following the long run. Thiobarbituric acid reactive substances (TBARS) and total antioxidant capacity (TAC) were measured to evaluate the antioxidant status of each of the test dogs during the exercise program. Serum samples were analyzed for total antioxidant capacity (TAC) and thiobarbituric acid reactive substances (TBARS) using commercially available colorimetric kits supplied by Cayman Chemical Company (Ann Arbor, Mich.) per manufacturer instructions. Serum canine myoglobin levels were determined using a commercially available ELISA supplied by Innovate Research (Novi, Mich.) per manufacturer instructions. Creatine kinase activity was determined colorimetrically using a commercially available kit supplied by BioVision (San Francisco, Calif.).
compound,measurement,setting,value
C[N+](C)(C)C[C@H](O)CC(=O)[O-] [L-carnitine],Myoglobin Least Sq Mean,Baseline,10.1 ng/mL
same,Myoglobin Least Sq Mean,"Baseline, F",14.77 ng/mL
same,Myoglobin Least Sq Mean,"Baseline, M",5.43 ng/mL
same,"Myoglobin, serum, Mean","Ex.1, 250 mg/d, Baseline, both sexes",10.0 ng/mL
same,"Myoglobin, serum, Mean","Ex.1, 250 mg/d, Baseline, females",17.6 ng/mL
same,"Myoglobin, serum, Mean","Ex.1, 250 mg/d, Baseline, males",5.8 ng/mL
same,"Myoglobin, serum, Mean","Ex.1, 250 mg/d, Post-run, both sexes",19.2 ng/mL
same,"Myoglobin, serum, Mean","Ex.1, 250 mg/d, Post-run, females",24.5 ng/mL
same,"Myoglobin, serum, Mean","Ex.1, 250 mg/d, Post-run, males",14.9 ng/mL
same,"Myoglobin, serum, Mean","Ex.1, 250 mg/d, Pre-run, both sexes",9.0 ng/mL
same,"Myoglobin, serum, Mean","Ex.1, 250 mg/d, Pre-run, females",8.4 ng/mL
same,"Myoglobin, serum, Mean","Ex.1, 250 mg/d, Pre-run, males",9.3 ng/mL
same,"Change in Myoglobin, post-run minus pre-run","Ex.1, 250 mg/d, females",6.11 ± 3.51 n = 6 ng/mL
same,"Change in Myoglobin, post-run minus pre-run","Ex.1, 250 mg/d, males",7.04 ± 3.9 n = 10 ng/mL
same,Serum myoglobin values after exercise,"Ex.1, 250 mg/d, post-run, summary text value, control 30.97",19.67 ng/mL
same,Myoglobin Least Sq Mean,Post-run,19.67 ng/mL
same,Myoglobin Least Sq Mean,"Post-run, F",24.46 ng/mL
same,Myoglobin Least Sq Mean,"Post-run, M",14.88 ng/mL
same,Myoglobin Least Sq Mean,Pre-run,10.01 ng/mL
same,Myoglobin Least Sq Mean,"Pre-run, F",11.06 ng/mL
same,Myoglobin Least Sq Mean,"Pre-run, M",8.96 ng/mL
same,Myoglobin Least Sq Mean,"Treatment * Sex, F",14.77 ng/mL
same,Myoglobin Least Sq Mean,"Treatment * Sex, M",5.43 ng/mL
same,Myoglobin Least Sq Mean,"Treatment level, all dogs",10.1 ng/mL
same,"Myoglobin, mixed model Estimate, term Time[Post-run-Pre-run] * Treatment[L-carnitine]","serum, model term",−7.625
same,"Myoglobin, mixed model Estimate, term Time[Post-run-Pre-run] * Treatment[L-carnitine] * Sex[F]","serum, model term",−3.63
same,"Myoglobin, mixed model Estimate, term Time[Pre-run-Baseline] * Treatment[L-carnitine]","serum, model term",0.3222
same,"Myoglobin, mixed model Estimate, term Time[Pre-run-Baseline] * Treatment[L-carnitine] * Sex[F]","serum, model term",−0.369
same,"Myoglobin, mixed model Estimate, term Treatment[L-carnitine]","serum, model term",1.653
same,"Myoglobin, mixed model Estimate, term Treatment[L-carnitine] * Sex[F]","serum, model term",1.582

# From patent US10016382B2, “Method for decreasing skeletal muscle damage and/or oxidative stress in mammals” (LONZA INC., priority 2014, dated 2018)
